We go through nine compounds from ChEMBL document CHEMBL4007427, “Inhibition of the Aldehyde Dehydrogenase 1/2 Family by Psoralen and Coumarin Derivatives” (J Med Chem, 2017).

Experiment [1] concerns the target T1, Aldehyde dehydrogenase 1A1 (Homo sapiens, UniProt P00352).
T1 sequence (P00352 whole entry): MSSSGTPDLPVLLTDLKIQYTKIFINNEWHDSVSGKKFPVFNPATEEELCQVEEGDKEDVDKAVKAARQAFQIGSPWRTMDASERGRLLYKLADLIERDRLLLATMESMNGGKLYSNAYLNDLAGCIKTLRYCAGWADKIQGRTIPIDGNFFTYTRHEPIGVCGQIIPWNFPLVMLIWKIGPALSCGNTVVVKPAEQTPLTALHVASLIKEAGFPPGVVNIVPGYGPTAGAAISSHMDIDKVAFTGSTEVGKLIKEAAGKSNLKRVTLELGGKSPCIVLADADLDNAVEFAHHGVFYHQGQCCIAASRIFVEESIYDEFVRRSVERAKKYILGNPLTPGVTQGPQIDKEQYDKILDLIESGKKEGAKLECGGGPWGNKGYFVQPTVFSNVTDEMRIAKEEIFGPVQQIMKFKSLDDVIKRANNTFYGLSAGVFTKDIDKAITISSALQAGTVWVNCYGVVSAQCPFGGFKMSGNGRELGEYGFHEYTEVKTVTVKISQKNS

Experiment [2] addresses T2, Aldehyde dehydrogenase X, mitochondrial (Homo sapiens, UniProt P30837).
T2 sequence (P30837 whole entry): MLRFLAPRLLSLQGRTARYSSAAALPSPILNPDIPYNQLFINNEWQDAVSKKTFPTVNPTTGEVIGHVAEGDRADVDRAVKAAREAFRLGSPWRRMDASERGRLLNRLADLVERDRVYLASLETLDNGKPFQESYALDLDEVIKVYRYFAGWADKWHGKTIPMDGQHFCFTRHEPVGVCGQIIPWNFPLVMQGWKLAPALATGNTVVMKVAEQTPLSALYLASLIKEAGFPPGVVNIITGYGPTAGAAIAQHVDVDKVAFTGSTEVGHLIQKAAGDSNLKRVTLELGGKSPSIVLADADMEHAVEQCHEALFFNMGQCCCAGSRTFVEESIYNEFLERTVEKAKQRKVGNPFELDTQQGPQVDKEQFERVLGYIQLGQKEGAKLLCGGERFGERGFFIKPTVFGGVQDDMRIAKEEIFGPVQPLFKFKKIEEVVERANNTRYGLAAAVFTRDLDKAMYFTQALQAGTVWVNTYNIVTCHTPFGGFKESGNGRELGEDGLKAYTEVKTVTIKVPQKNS
Description: Inhibition of full length recombinant human ALDH1B1 expressed in Escherichia coli TunerDE3 assessed as reduction in dehydrogenase activity by measuring NAD(P)H level preincubated for 2 mins followed by addition of propionaldehyde as substrate in presence of NAD+ by spectrophotometric method

The target in experiment [3] is T3, Retinaldehyde dehydrogenase 3 (Homo sapiens, UniProt P47895).
T3 sequence (P47895 whole entry): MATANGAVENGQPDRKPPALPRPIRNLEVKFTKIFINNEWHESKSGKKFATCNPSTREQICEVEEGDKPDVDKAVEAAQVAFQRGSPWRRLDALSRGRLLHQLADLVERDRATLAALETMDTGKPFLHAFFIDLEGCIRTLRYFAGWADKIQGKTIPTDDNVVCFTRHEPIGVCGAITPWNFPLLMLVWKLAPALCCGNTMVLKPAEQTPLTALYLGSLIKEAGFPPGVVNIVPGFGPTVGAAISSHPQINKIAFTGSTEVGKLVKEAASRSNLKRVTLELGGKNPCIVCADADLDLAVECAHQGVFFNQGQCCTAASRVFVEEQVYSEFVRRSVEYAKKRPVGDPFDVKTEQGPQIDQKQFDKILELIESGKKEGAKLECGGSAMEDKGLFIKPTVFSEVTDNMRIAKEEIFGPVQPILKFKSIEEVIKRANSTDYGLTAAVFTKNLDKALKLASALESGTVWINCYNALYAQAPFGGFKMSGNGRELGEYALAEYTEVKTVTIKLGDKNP
Description: Inhibition of full length recombinant human ALDH1A3 expressed in Escherichia coli BL21(DE3) assessed as reduction in dehydrogenase activity by measuring NAD(P)H level preincubated for 2 mins followed by addition of propionaldehyde as substrate in presence of NAD+ by spectrophotometric method

Experiment [4] concerns the target T4, Aldehyde dehydrogenase 1A1 (Homo sapiens) (UniProt P00352).
T4 sequence (whole entry): T1 sequence (P00352 whole entry)
Description: Inhibition of full length recombinant human ALDH1A1 expressed in Escherichia coli BL21(DE3) assessed as reduction in dehydrogenase activity by measuring NAD(P)H level preincubated for 2 mins followed by addition of propionaldehyde as substrate in presence of NAD+ by spectrophotometric method relative to control.

Experiment [5] has as its target T5, Cytosolic 10-formyltetrahydrofolate dehydrogenase (Rattus norvegicus, UniProt P28037).
T5 sequence (P28037 whole entry): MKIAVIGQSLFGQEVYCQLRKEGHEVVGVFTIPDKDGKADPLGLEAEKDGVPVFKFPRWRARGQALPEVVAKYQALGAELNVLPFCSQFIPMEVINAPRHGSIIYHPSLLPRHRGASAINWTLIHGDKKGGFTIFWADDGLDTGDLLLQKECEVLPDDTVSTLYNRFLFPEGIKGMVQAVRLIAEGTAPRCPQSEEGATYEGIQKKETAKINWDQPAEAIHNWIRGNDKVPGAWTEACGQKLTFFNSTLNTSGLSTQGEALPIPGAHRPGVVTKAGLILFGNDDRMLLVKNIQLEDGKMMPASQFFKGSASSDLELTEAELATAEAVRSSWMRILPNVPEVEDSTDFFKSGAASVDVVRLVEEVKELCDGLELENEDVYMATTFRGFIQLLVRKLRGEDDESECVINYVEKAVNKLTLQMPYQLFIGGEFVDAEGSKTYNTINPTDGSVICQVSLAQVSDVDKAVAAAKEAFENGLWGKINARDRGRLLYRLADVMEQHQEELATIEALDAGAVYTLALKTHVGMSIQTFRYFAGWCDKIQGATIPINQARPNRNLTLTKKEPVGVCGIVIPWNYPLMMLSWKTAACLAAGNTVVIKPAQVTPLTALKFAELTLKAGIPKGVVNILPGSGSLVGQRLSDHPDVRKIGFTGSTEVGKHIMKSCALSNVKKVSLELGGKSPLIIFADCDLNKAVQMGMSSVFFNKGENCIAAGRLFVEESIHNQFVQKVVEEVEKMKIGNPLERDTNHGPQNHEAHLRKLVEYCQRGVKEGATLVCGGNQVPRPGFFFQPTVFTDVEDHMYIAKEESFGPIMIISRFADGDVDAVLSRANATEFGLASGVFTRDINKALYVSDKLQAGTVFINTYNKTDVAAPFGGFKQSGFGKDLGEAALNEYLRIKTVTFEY
Nature of the experiment: Inhibition of rat ALDH1L1 assessed as reduction in dehydrogenase activity by measuring NAD(P)H level preincubated for 2 mins followed by addition of propionaldehyde as substrate in presence of NAD+ by spectrophotometric method.

A word on the IC50: it is the concentration that inhibits the measured activity by half. Consider `C/C(=N\O)c1cc2cc(Br)ccc2oc1=O`, for which the IC50 entry in experiment [1] is “Not Active”.

As to `Cc1oc2cc3oc(=O)c(CCC(=O)N4CCCCC4)c(C)c3cc2c1C`, the IC50 in experiment [2] was 2600 nM; in experiment [3], 14000 nM.

Consider `Cc1oc2cc3oc(=O)c4c(c3cc2c1C)CCC4`, for which the Imax in experiment [4] was in the range of 50 to 60%. Also, the IC50 in experiment [2] worked out at 160 nM; in experiment [3] it was 170 nM.

Take `CCCc1c(C)c2cc3c(C)coc3cc2oc1=O`: in experiment [4], the Imax was found to be 60%. For the same compound, the IC50 result was “Not Active” in experiment [5], 880 nM in experiment [2] and 1100 nM in experiment [3].

In the case of `Cc1oc2cc3oc(=O)c(C)c(C)c3cc2c1C`, the IC50 result in experiment [5] was “Not Active”; in experiment [2], 310 nM; in experiment [3], 270 nM; in experiment [1] it was “Not Active”.

In the case of `COC(=O)C(C)Oc1ccc2c(C)cc(=O)oc2c1` (stereo not drawn), the IC50 entry in experiment [5] and in experiment [1] was “Not Active” throughout.

Regarding `CCCc1c(C)c2cc3c(C)c(C)oc3cc2oc1=O`, the IC50 entry was “Not Active” in experiment [5], 360 nM in experiment [2] and 400 nM in experiment [3].

Regarding `CCCc1cc(=O)oc2cc3oc(C)c(C)c3cc12`, the IC50 in experiment [2] was 86 nM; in experiment [1], “Not Active”.

Turning to `Cc1oc2cc3oc(=O)c4c(c3cc2c1C)CCCC4`, the Imax in experiment [4] lay within 50 to 60%. The same compound returned an IC50 in experiment [2] of 95 nM.
